This note sets out measurements from patent publication US20190216831A1 (priority 2015, published 2019).

Molecules are shown by their SMILES.

Data set [1] concerns EIAVWYO. As to the kind of experiment: EIAV replication kinetics in equine dermal cells, RT qPCR of culture supernatants. It is filed as cell-based, Equine infectious anemia virus. Conditions: for EIAV viral replication decreased to (from 10^8) / EIAV viral replication reduced to (from 10^8): 10 μM; for EIAV viral replication decreased to (from 10^8): day 15 post infection; for EIAV viral replication reduced to (from 10^8): day 15 and 20 post infection. How it is done: Equine dermal cells (3×10^4 cells per well of a 96-well plate) were seeded and incubated in complete media (as described above for NEV infections) under 5% CO2 at 37° C., for 24 h to 72 hours prior to infection. The antiviral effect adefovir dipivoxil, as well as other are antiviral drugs approved by FDA or EMA such as Zidovudine (nucleoside reverse transcription inhibitor), Nevirapine (non-nucleoside reverse transcription inhibitor), Indinavir sulphate (a HIV-1 protease inhibitor), Darunavir Ethanolate (a HIV-1 protease inhibitor), Daclastavir (HCV NS5A inhibitor), Cyclosporin A (immunosuppressive agent) and the drug that is being evaluated in pre-clinical/clinical assays as antivirals, such as Tenofovir (a nucleoside reverse transcription inhibitor), was evaluated (FIGS. 4A and 4B).
The drugs mentioned above were also tested as antivirals for EIAV. For that cells were pre-treated with drugs at two different concentrations 1 or 10 μM for 1 hour in triplicates. Cells were then infected with EIAVWYO (3 MOI for 2 hours). After infection fresh media and drugs were replaced and cells incubated for 5, 10, 15 and 20 days. The EIAVWYO replication was evaluated by quantifying EIAV viral genome in culture supernatants by means of RT qPCR. FIGS. 4A and 4B show the effect of the different drugs in EIAV replication kinetics. […] Virus was only recovered at low levels from treated cells in one of three replicate at day 5 (10 viral particles/mL) and another of three replicates at day 15 (100 viral particles/mL). The differences observed between the treated and not treated infected cells were statistically significant for p<0.001.

The test system of data set [2] is NEV. As to the kind of experiment: Antiviral drug screen: PrestoBlue cell viability of NEV-infected Equine Dermal cells. It counts as cell-based, New Equine Virus. To be noted: ED cells, 9 days. The text has this: (§1) Complete media was composed of DMEM medium (Gibco, Life Technologies) with 10% Inactivated Fetal bovine serum (Gibco, Life Technologies), 1% Glutamax (Gibco, Life Technologies) and 1% Penicillin-Streptamicin (Gibco, Life Technologies).
The antiviral effect of adefovir dipivoxil, as well as other are antiviral drugs approved by FDA or EMA such as Zidovudine (nucleoside reverse transcription inhibitor), Nevirapine (non-nucleoside reverse transcription inhibitor), Indinavir sulphate (a HIV-1 protease inhibitor), Darunavir Ethanolate (a HIV-1 protease inhibitor), Daclastavir (HCV NS5A inhibitor), Cyclosporin A (immunosuppressive agent) and the drug that is being evaluated in pre-clinical/clinical assays as antivirals, such as Tenofovir (a nucleoside reverse transcription inhibitor), was evaluated (FIGS. 4A and 4B). Cells were pre-treated with drugs at 1 or 10 μM in quintuplicates for one hour and infected with NEV (1130 PFU per well) for 2 hours. After 2 hours fresh media with drugs was replaced. Cells were then incubated for 9 days in a humid chamber 37° C. and 5% CO2. After 9 days cellular viability of treated cells was compared to those of non infected cells and infected and not treated cells by using PrestoBlue cell viability reagent. […]

The subject of data set [3] is EHV-1. Put plainly: cells. To be noted: Equus caballus, 144 h, read-out: IC50 for EHV-1 by cell viability.
Description: (§6) Equine Dermal cells (ATCC CCL57) (10^5 cells/cm^2) were seeded in 96 well plates 24 to 72 hours before infection in complete media and incubated in a humid chamber at 37° C. and 5% CO2 until 95%-99% confluent monolayers were attained. Complete media was composed of DMEM medium (Gibco, Thermofisher Scientific) with 10% of Inactivated Fetal bovine serum (Gibco, Thermofisher Scientific), 1% of Glutamax (Gibco, Life Technologies) and 1% Penicilin-Streptamicin (Gibco, Thermofisher Scientific). […] (Selleckchem, Germany). The pre-treatment with the drug preceded the infection.
(§7) ED cells were pre-treated with drug for 30 minutes before infection, and treatment maintained during infection.
(§8) Cells were infected with EHV-1 at 1 MOI for 2 hours. Infective EHV-1 viral particles were produced in ED cells with an EHV-1 molecular clone purchased from ATCC (VR-2248). After infection cells were washed twice with HBSS to remove unbound virus and fresh complete media and fresh drug was replaced in each well. Treatment was maintained during 6 days without addition of fresh drug.
(§9) After 6 days post-infection reazurin-based cell viability assays (PrestoBlue, Thermofisher Scientific) were used to evaluate the increased cell numbers in the same conditions as indicated above for qPCR quantification. […] 15 μl of Prestoblue reagent was added directly to the assay wells and absorbance measured at 570 nm after 24 hours of incubation with the Prestoblue reagent. All the absorbance values were corrected by removing the baseline, absorbance values of the Prestoblue reagent incubated 24 hours without cells. The results were analysed by Prism software by using the four-parameter function (log (drug) vs. response assuming a variable slope).
(§10) Equine Dermal cells (ATCC CCL57) (10^5 cells/cm^2) were seeded in 96 well plates 24 to 72 hours before infection in complete media and incubated in a humid chamber at 37° C. and 5% CO2 until 95%-99% confluent monolayers were attained. Complete media was composed of DMEM medium (Gibco, Thermofisher Scientific) with 10% of Inactivated Fetal bovine serum (Gibco, Thermofisher Scientific), 1% of Glutamax (Gibco, Thermofisher Scientific) and 1% Penicilin-Streptamicin (Gibco, Thermofisher Scientific). […] (Selleckchem, Germany). The pre-treatment with the drug preceded the infection.
The subject of data set [4] is EHV-1. Put plainly: EHV-1 viral particles in supernatant of MacF macrophage-like cells by qPCR. Conditions: Equus caballus, 72 h, day 3 post infection. It counts as cell-based, Equine herpesvirus 1. How it is done: (§2) Antiviral activity of Adefovir dipivoxil was also evaluated in macrophage like cell lines. […] (Selleckchem, Germany). The pre-treatment with the drug preceded the infection.
(§3) Infections studies, viral particle quantification and cell viability assays were performed as described above for antiviral assays in ED cells.
(§4) Antiviral activity of Tenofovir disoproxil fumarate was also evaluated in macrophage like cell lines. […] (Selleckchem, Germany). The pre-treatment with the drug preceded the infection.
(§5) EHV-1 cell infections, viral particle production and cell viability assays were assayed as described in example 5.
(In general: Real-time PCR tracks product formation cycle by cycle.)

The subject of data set [5] is EHV-1. Put plainly: EHV-1 viral particles in supernatant of ED cells by qPCR. It counts as cell-based, Equine herpesvirus 1. Conditions: Equus caballus, 72 h, day 3 post infection. How it is done:
(Selleckchem, Germany). The pre-treatment with the drug preceded the infection.
A standard curve of an EHV-1 synthetic DNA was used. To obtain the standard curve, seven 1:10 dilutions of the synthetic DNA in duplicates were tested in parallel. Samples were tested in triplicates. The standard curve obtained (with R2 0.995, Efficiency 91.7%) allowed us to quantify the EHV-1 viral particles produced into the cell culture media.

Data set [6] has as its system EIAVWYO. As to the kind of experiment: IC50 for EIAVWYO viral replication in ED cells by RT qPCR. It counts as cell-based. Conditions: Equine infectious anemia virus, 168 h, read-out: IC50 (EIAVWYO viral replication). How it is done:
Furthermore, to better evaluate the effect of the drug on EIAVWYO viral replication on ED cells, we have determined the IC50 of adefovir dipivoxil. […] (Selleckchem, Germany) for 60 minutes. The pre-treatment with Adefovir dipivoxil (Selleckchem, Germany) preceded the infection. Eleven serial dilutions ranging from 0.01 to 10,000 nM (0.01, 19.53, 39.06, 78.130, 156.250, 312.5, 625, 1250, 2500, 5000 and 10000 nM) were performed in triplicates for each drug concentration. Treatment was maintained during infection. EIAVWYO viral particles (10 μl containing 1.9×10^5 viral particles) were added in each well of a 96-well plate and incubated for 2 hours. […] For quantification, a standard curve of an EIAV plasmid DNA was used. To obtain the standard curve, seven 1:10 dilutions in duplicates were tested in parallel. Samples were tested in triplicates. The standard curve obtained (with R^2 0.994, Efficiency 96.56%) allowed us to quantify the viral particles.

Data set [7] has as its system NEV. Put plainly: Dose response: PrestoBlue cell viability of NEV-infected ED cells. It counts as cell-based, New Equine Virus. The procedure: as §1
(Selleckchem, Germany). The pre-treatment with adefovir dipivoxil (Selleckchem, Germany) preceded the infection. To determine drug IC50 ten 1:2 serial dilutions ranging from 5 to 2560 nM concentrations were performed in quintuplicates for each drug concentration. ED cells were pre-treated with drug for 60 minutes before infection, and treatment maintained during infection. NEV viral particles (10 μl containing 1130 PFU) were added to the cell culture media for 2 hours. […] Eleven days after infection, cells were screened for viability by using the PrestoBlue cell viability assay (Molecular Probes, Life Technologies) accordingly to manufacturer instructions. Absorbance (570 nm) of adefovir dipivoxil treated cells was compared to those of non-infected and/or untreated NEV-infected cells.

Data set [8] concerns EHV-1. To be noted: ED cells.
Description: as §6, §7, §8, §9, §10
A short description of data set [9]: Cytotoxicity (CC50) in MacF macrophage cell line, PrestoBlue. It is filed as cell-based. Conditions: horse (equine), MacF cells, treated for 7 days. The source says: (Selleckchem, Germany) for 7 days.
Data set [10] has as its system EHV-1. As to the kind of experiment: PrestoBlue cell viability of EHV-1 infected MacF macrophage-like cells. Conditions: Equus caballus, 144 h, day 6 post infection, average of two independent experiments. It is filed as cell-based, Equine herpesvirus 1. The procedure: as §2, §3, §4, §5
Data set [11] deals with NEV. As to the kind of experiment: Dose response: PrestoBlue cell viability of NEV-infected equine macrophage cell line (MacF). It counts as cell-based, New Equine Virus. How it is done:
An equine macrophage cell line (MacF) was spontaneously immortalized from a NEV-seropositive horse accordingly the procedures reported in Fidalgo-Carvalho et. al, 2009.
Cells were incubated 24 to 72 hours before NEV infection until 95%-99% confluent cell monolayers were attained.
(Selleckchem, Germany), as reported above for ED cells. To determine drug IC50 in MacF cell line, eleven serial dilutions of 1:4 ranging from 0.05 nM to 28 μM were performed in quintuplicates for each drug concentration. MacF Cells were pre-treated with drug for 60 minutes before infection, and treatment was maintained during infection. NEV viral particles (10 μl containing 1130 PFU) were added to the cell culture media for 2 hours. […] Eleven days after infection, cells were screened for viability by using the PrestoBlue cell viability assay (Molecular Probes, Life Technologies) accordingly to manufacturer instructions. Absorbance (570 nm) of adefovir dipivoxil treated cells was compared to those of non-infected and/or untreated NEV infected cells.

Data set [12] is described as follows: in vitro. To be noted: horse (equine).
Description: For that, ED cells (10^5 cells/cm^2) were seeded as mentioned above in 96-well plates. […] To determine drug CC50, twelve different concentrations of 4, 6, 9, 13.5, 20.250, 30.370, 45.560, 68.340, 102.520, 153.770, 230.660 and 2000 μM were performed in quintuplicates per each drug concentration. Cell viability was assessed by using the PrestoBlue reagent as mention above for IC50 analysis and incubated for 24 hours.
For that, ED cells (10^5 cells/cm^2) were seeded as mentioned above in 96-well plates. […] To determine drug CC50, ten different 1:1.3 serial dilutions from 25.39 to 350 μM were performed in quintuplicates per each drug concentration. Cell viability was assessed by using the PrestoBlue reagent as mention above for IC50 analysis and incubated for 24 hours.

Consider `CC(C)CN(C[C@@H](O)[C@H](Cc1ccccc1)NC(=O)O[C@H]1CO[C@H]2OCC[C@H]21)S(=O)(=O)c1ccc(N)cc1` [Darunavir], for which the “EIAV viral replication decreased to (from 10^8)” value in data set [1] was 10^3 viral particles/mL.

For the compound `CC(C)(C)NC(=O)[C@@H]1CN(Cc2cccnc2)CCN1C[C@@H](O)C[C@@H](Cc1ccccc1)C(=O)N[C@H]1c2ccccc2C[C@H]1O` [Indinavir], in [1], the “EIAV viral replication decreased to (from 10^8)” value is on record as 10^4 viral particles/mL.

Take `CC(C)(C)C(=O)OCOP(=O)(COCCn1cnc2c(N)ncnc21)OCOC(=O)C(C)(C)C` [adefovir dipivoxil, 9-[2-[[bis[(pivaloyloxy)methoxy]phosphinyl]-methoxy]ethyl]adenine]: the “cellular viability of NEV infected cells” value in data set [2] (drug at 1 or 10 μM, vs non infected and untreated infected cells) was “completely reverted the effect of NEV on cellular viability”. The half-inhibitory concentration (IC50) (usually the concentration at which inhibition is half-maximal) in [3] amounted to 123 nM; in [4] (average of three independent experiments), 142 nM; in data set [5] (three independent experiments), 4.42 nM; in data set [6], 3.38 nM; in data set [7] (Equus caballus, 264 h, 11 days after infection) it was 113 nM; in [10], 172 nM. In data set [11] (Equus caballus, Macrophage, 264 h, MacF cells, 11 days after infection), this compound came in with an IC50 of 3840 nM. In data set [1] (ED cells, 1 or 10 μM, single dose, up to 20 days), the “effect on EIAV replication” value was “blocked the EIAV replication”. Also, the “virus recovered from treated cells” value was found to be 10 viral particles/mL in data set [1] (day 5, one of three replicates) and 100 viral particles/mL in data set [1] (day 15, one of three replicates). Moreover, the “cell viability (absorbance) compared with non-infected mock cells” value in data set [7] (320 nM, 11 days post NEV infection) was “very similar absorbance values”. Also, the “therapeutic index (CC50/IC50) for EHV-1” value in data set [8] is on record as 1162.3. Further, in data set [9], the CC50 at 7 days is 207000 nM. In data set [11] (14 μM, 11 days post NEV infection), the “cell viability (absorbance) compared with Mock MacF cells” value is on record as “very similar (or even slightly higher)”. For the same compound, the CC50 at 6 days in data set [12] (Equine Dermal (ED) cells (ATCC CCL57)) amounted to 142000 nM.

With `CC(C)OC(=O)OCOP(=O)(CO[C@H](C)Cn1cnc2c(N)ncnc21)OCOC(=O)OC(C)C.O=C(O)/C=C/C(=O)O` [tenofovir disoproxil fumarate], the IC50 in data set [3] was 14000 nM; in [4] (average of two independent experiments), 1130 nM; in [5] (average of four independent experiments) it was 7440 nM; in data set [10], 22700 nM. Moreover, the “therapeutic index (CC50/IC50) for EHV-1” value in [8] amounted to 8.334. In [12], this compound came in with a CC50 at 3 days of 117000 nM.

Consider `C[C@H](Cn1cnc2c(N)ncnc21)OCP(=O)(O)O` [tenofovir, [(2R)-1-(6-aminopurin-9-yl)propan-2-yl]oxymethylphosphonic acid], for which the “cell viability of NEV infected cells” value in data set [2] (drug at 10 μM) is “increased the cell viability of infected cells”. The “EIAV viral replication reduced to (from 10^8)” value in [1] is 10^5 viral particles/mL.

Consider `Cc1cn([C@H]2C[C@H](N=[N+]=[N-])[C@@H](CO)O2)c(=O)[nH]c1=O` [zidovudine], for which, in data set [1], the “EIAV viral replication reduced to (from 10^8)” value is on record as 10^5 viral particles/mL.
